Laboratory results reported in patent US20200048308A1, “INFLUENZA VIRUS NE[…]” (priority 2016, published 2020).
Like-named read-outs stand apart in the source and are kept apart here.

What was measured:
[1] = target: H1/Cal HA (biotinylated full length trimeric HA, A/California/07/2009) (Influenza A virus, UniProt C3W5X2); assay: AlphaLISA competition assay with HB80.4, H1/Cal HA; type: binding, influenza A virus H1N1 A/California/07/2009
From the text: (§1) Binding competition studies were designed to test compounds of the invention for competition with other well characterized HA binding proteins (such as e.g. CR9114, CR6261 and HB80.4) with known epitopes on HA. The epitopes where either located at the stem of the HA (viral membrane proximal part of HA) or, for control purposes, at the head of HA (viral membrane distal part of HA). If competition was observed, it was assumed that both molecules bind to a similar or at least overlapping epitope at the surface of HA. Competition with a HA head- and stem-binder was interpreted as unspecific binding.
(§2) Hereto an AlphaLISA competition assay (Perkin Elmer) was established which relied on biotinylated full length and trimeric HA proteins (Protein Sciences, 10 μL, 0.5 nM final concentration in 50 μL) bound by HA-specific binders. The interaction between HA and the binder was detected after 1 h incubation at room temperature (RT) with two beads, a streptavidin donor bead recognizing HA (10 μL of 10 μg/mL) and an anti Fc bead (10 μg/mL) recognizing the IgGs used. If after an additional hour of incubation at RT the excited donor bead (680 nm) and acceptor bead are in close proximity, an energy transfer (singlet oxygen) can be measured as a luminescence signal of the acceptor bead (Perkin Elmer EnVision plate reader). The signal intensity in this homogeneous assay format is directly proportional to the binding strength (affinity/avidity) between both binding partners.

[2] = target: H1/Nca HA (biotinylated full length trimeric HA, A/New Caledonia/20/1999) (Influenza A virus, UniProt Q6WG00); assay: AlphaLISA competition assay with HB80.4, H1/NCa HA; type: binding, influenza A virus H1N1 A/New Caledonia/20/1999
From the text: as §1, §2

[3] = tested on: influenza virus A/New Caledonia (H1); assay: Virus neutralization assay (VNA) on Calu-3 cells; type: cell-based, influenza A virus H1N1 A/New Caledonia/20/1999
[4] = ALC_H1_NCa_HB80.4 calculated pIC50, AlphaLISA competition with HB80.4 on H1 NCa HA, 0.5 nM HA
[5] = Calu-3 cells, 5 TCID50/50 μL virus, 4 days, NP ELISA readout

Row | SMILES | IC50 [1] [nM] | IC50 [2] [nM] | VNA_H1_NCa_Calu3 pIC50 [3] | IC50 [2, 4] [nM] | VNA_H1_NCa_Calu3 pIC50 [3, 5]
1 | CSCC[C@@H]1NC(=O)CNC(=O)CNC(=O)[C@H](C)NC(=O)[C@H](C(C)C)NC(=O)CNC(=O)[C@H](CC(C)C)NC(=O)[C@@H]2CCCN2C(=O)[C@H](CC(=O)O)NC(=O)[C@H](CCC(=O)O)NC(=O)[C@H](Cc2ccc(O)cc2)NC(=O)[C@H](CC(C)C)NC(=O)CNC1=O [CP141088, Leu-Tyr-Glu-Asp-Pro-Leu-Gly-Val-Ala-Gly-Gly-Met-Gly] | 251 | 251 | 4.4 |  | 
2 | CSCC[C@@H]1NC(=O)CNC(=O)CNC(=O)[C@H](C)NC(=O)[C@H](C(C)C)NC(=O)CNC(=O)[C@H](CC(C)C)NC(=O)[C@@H]2CCCN2C(=O)[C@H](CC(=O)O)NC(=O)[C@H](CCC(=O)O)NC(=O)[C@H](Cc2ccc(O)cc2)NC(=O)[C@H](CC(C)C)NC(=O)CNC(=O)CNC1=O [CP141087, Leu-Tyr-Glu-Asp-Pro-Leu-Gly-Val-Ala-Gly-Gly-Met-Gly-Gly] | 501 | 631 | 4.9 |  | 
3 | CSCC[C@@H]1NC(=O)CNC(=O)CNC(=O)[C@H](C)NC(=O)[C@H](C(C)C)NC(=O)CNC(=O)[C@H](CC(C)C)NC(=O)[C@@H]2CCCN2C(=O)[C@H](CC(=O)O)NC(=O)[C@H](CCC(=O)O)NC(=O)[C@H](Cc2ccc(O)cc2)NC(=O)[C@H](CC(C)C)NC(=O)[C@H](CO)NC(=O)[C@H](C(C)C)NC(=O)CNC(=O)[C@H]2CCCN2C(=O)[C@H](Cc2ccc(O)cc2)NC(=O)[C@H](C(C)C)NC(=O)CNC1=O [CP141082, Gly-Val-Ser-Leu-Tyr-Glu-Asp-Pro-Leu-Gly-Val-Ala-Gly-Gly-Met-Gly-Val-Tyr-D-Pro] | 20 |  |  | 20 | 4.3
4 | CSCC[C@@H]1NC(=O)CNC(=O)CNC(=O)[C@H](C)NC(=O)[C@H](C(C)C)NC(=O)CNC(=O)[C@H](CC(C)C)NC(=O)[C@@H]2CCCN2C(=O)[C@H](CC(=O)O)NC(=O)[C@H](CCC(=O)O)NC(=O)[C@H](Cc2ccc(O)cc2)NC(=O)[C@H](CC(C)C)NC(=O)[C@@H]2CCCN2C(=O)[C@H]2CCCN2C(=O)CNC1=O [CP141086, Pro-Leu-Tyr-Glu-Asp-Pro-Leu-Gly-Val-Ala-Gly-Gly-Met-Gly-D-Pro] | 1580 |  |  | 200 | 4.6
5 | CSCC[C@@H]1NC(=O)CNC(=O)CNC(=O)[C@H](C)NC(=O)[C@H](C(C)C)NC(=O)CNC(=O)[C@H](CC(C)C)NC(=O)[C@@H]2CCCN2C(=O)[C@H](CC(=O)O)NC(=O)[C@H](CCC(=O)O)NC(=O)[C@H](Cc2ccc(O)cc2)NC(=O)[C@H](CC(C)C)NC(=O)[C@@H](NC(=O)CCC(=O)O)CSSC[C@@H](C(N)=O)NC(=O)CNC1=O [CP141069, Suc-Cys-Leu-Tyr-Glu-Asp-Pro-Leu-Gly-Val-Ala-Gly-Gly-Met-Gly-Cys-NH2] | 316 |  |  | 158 | 6.1
6 | CSCC[C@@H]1NC(=O)CNC(=O)CNC(=O)[C@H](C)NC(=O)[C@H](C(C)C)NC(=O)CNC(=O)[C@H](CC(C)C)NC(=O)[C@@H]2CCCN2C(=O)[C@H](CC(=O)O)NC(=O)[C@H](CCC(=O)O)NC(=O)[C@H](Cc2ccc(O)cc2)NC(=O)[C@@H](NC(=O)CCC(=O)O)CSSC[C@@H](C(N)=O)NC1=O [CP141070, Suc-Cys-Tyr-Glu-Asp-Pro-Leu-Gly-Val-Ala-Gly-Gly-Met-Cys-NH2] | 6310 | 3980 | 4.4 |  | 
7 | CSCC[C@@H]1NC(=O)CNC(=O)CNC(=O)[C@H](C)NC(=O)[C@H](C(C)C)NC(=O)CNC(=O)[C@H](CC(C)C)NC(=O)[C@@H]2CCCN2C(=O)[C@H](CC(=O)O)NC(=O)[C@H](CCC(=O)O)NC(=O)[C@H](Cc2ccc(O)cc2)NC(=O)[C@H](CC(C)C)NC(=O)CNC(=O)[C@H]2CCCN2C(=O)CNC1=O [CP141084, Gly-Leu-Tyr-Glu-Asp-Pro-Leu-Gly-Val-Ala-Gly-Gly-Met-Gly-D-Pro] | 794 |  |  | 398 | 5.7
8 | CSCC[C@@H]1NC(=O)CNC(=O)CNC(=O)[C@H](C)NC(=O)[C@H](C(C)C)NC(=O)CNC(=O)[C@H](CC(C)C)NC(=O)[C@@H]2CCCN2C(=O)[C@H](CC(=O)O)NC(=O)[C@H](CCCNC(=N)N)NC(=O)[C@H](Cc2ccc(O)cc2)NC(=O)[C@H](CC(C)C)NC(=O)[C@@H](NC(=O)CCC(=O)O)CSSC[C@@H](C(N)=O)NC(=O)CNC1=O [CP141076, Suc-Cys-Leu-Tyr-Arg-Asp-Pro-Leu-Gly-Val-Ala-Gly-Gly-Met-Gly-Cys-NH2] | 100 |  |  | 126 | 6.0
